Measured values as given in US20210169903A1, “PHARMACEUTICAL COMPOSITIONS AND METHODS” (Tyme, Inc., priority 2019, published 2021).

System: established subcutaneous CT26 murine colon carcinoma
Experiment: Anti-tumor activity of components of the transdermal formulation, intratumoral, tumor volume (Example 3)
Assay type: in vivo, female Balb/c mice
Parameters: TES Group Median / DT Group Median / TGD: unit not given here
Settings: 50 μL intratumorally daily Day 11-17; for TGD: tumor growth delay versus Vehicle (0.0)
Experimental: A study is conducted to evaluate the anti-tumor activity of the components of the transdermal formulation intratumorally against established subcutaneous CT26 murine colon carcinoma in female Balb/c mice.
Vehicle control is saline solution. 3-surfactant mixture is a mixture of Nonaethylene glycol monododecyl ether, 1-Methyl-2-pyrrolidinone, and Linoleic Acid.
Tumor cells are implanted subcutaneously (Day 0). Once enrollment criteria are achieved, animals are distributed into treatment groups such that the mean tumor burden in each group is within 10% of the overall mean. Mice are dosed individually by body weight (50 μL fixed/injection intratumorally) on the day of treatment as described above. Animals are dose daily for 7 days beginning on Day 11 and ending on Day 17. Animals are held for tumor growth delay endpoint/tumor growth inhibition endpoint and complete regression/partial regression/tumor free survivor determination.

[1] = 2nd time-point column (day not given)
[2] = 4th time-point column (day not given)
[3] = 5th time-point column (day not given)
[4] = 6th time-point column (day not given)
[5] = 7th time-point column (day not given)

CCCCCCCCCCCCOCCOCCOCCOCCOCCOCCOCCOCCOCCO [Nonaethylene glycol monododecyl ether]
Mean Tumor Volume [1]: 236 mm^3
Median Tumor Volume [1]: 246 mm^3
Mean Tumor Volume (3rd time-point (day not given)): 416 mm^3
Median Tumor Volume (3rd time-point (day not given)): 368 mm^3
Mean Tumor Volume [2]: 761 mm^3
Median Tumor Volume [2]: 819 mm^3
Mean Tumor Volume [3]: 996 mm^3
Median Tumor Volume [3]: 988 mm^3
Mean Tumor Volume [4]: 1364 mm^3
Median Tumor Volume [4]: 1311 mm^3
Mean Tumor Volume [5]: 2017 mm^3
Median Tumor Volume [5]: 2009 mm^3
DT Group Median: 3.7
TES Group Median: 17.7
Mean Tumor Volume (day not given): 126 mm^3
Median Tumor Volume (day not given): 125 mm^3
TGD: −0.4

CCCCC/C=C\C/C=C\CCCCCCCC(=O)O [Linoleic Acid]
Mean Tumor Volume [1]: 283 mm^3
Median Tumor Volume [1]: 270 mm^3
Mean Tumor Volume (3rd time-point (day not given)): 481 mm^3
Median Tumor Volume (3rd time-point (day not given)): 411 mm^3
Mean Tumor Volume [2]: 777 mm^3
Median Tumor Volume [2]: 700 mm^3
Mean Tumor Volume [3]: 1291 mm^3
Median Tumor Volume [3]: 1030 mm^3
Mean Tumor Volume [4]: 1118 mm^3
Median Tumor Volume [4]: 1152 mm^3
Mean Tumor Volume [5]: 2035 mm^3
Median Tumor Volume [5]: 2250 mm^3
DT Group Median: 3.5
TES Group Median: 18.7
Mean Tumor Volume (day not given): 132 mm^3
Median Tumor Volume (day not given): 138 mm^3
TGD: 0.6

CN1CCCC1=O [1-Methyl-2-pyrrolidinone anhydrous, 1-Methyl-2-pyrrolidinone]
Mean Tumor Volume [1]: 278 mm^3
Median Tumor Volume [1]: 295 mm^3
Mean Tumor Volume (3rd time-point (day not given)): 428 mm^3
Median Tumor Volume (3rd time-point (day not given)): 426 mm^3
Mean Tumor Volume [2]: 688 mm^3
Median Tumor Volume [2]: 624 mm^3
Mean Tumor Volume [3]: 1008 mm^3
Median Tumor Volume [3]: 918 mm^3
Mean Tumor Volume [4]: 1216 mm^3
Median Tumor Volume [4]: 1183 mm^3
Mean Tumor Volume [5]: 1910 mm^3
Median Tumor Volume [5]: 1812 mm^3
DT Group Median: 4.0
TES Group Median: 18.8
Mean Tumor Volume (day not given): 134 mm^3
Median Tumor Volume (day not given): 141 mm^3
TGD: 0.8
